Columns and labels:
dental pulp = conditions: cited from earlier work
[1] = Self-assessment of pain before and after endodontic treatment (Control vs Experimental); format: in vivo, patients; conditions: for self-assessed pain, 6 hours / self-assessed pain, 24 hours / self-assessed pain, 48 hours / self-assessed pain, 120 hours / self-assessed pain, Before: scale of 1-10; for self-assessed pain, 6 hours: 6 hours following endodontic treatment; for self-assessed pain, 24 hours: 24 hours following endodontic treatment; for self-assessed pain, 48 hours: 48 hours following endodontic treatment; for self-assessed pain, 120 hours: 120 hours following endodontic treatment; for self-assessed pain, Before: prior to endodontic treatment (baseline)
Protocol: Use of TCA during endodontic treatment is associated with decreased incidence of pain following endodontic treatment. Without wishing to be bound by the theory, it is believed that the TCA composition eliminates unmyelinated C fibers in the apical pulp, particularly in mandibular molars. To assess the decreased pain, individuals were asked to provide a self-assessment, on a scale of 1-10, of pain prior to endodontic treatment, and 6, 24, 48, and 120 hours following endodontic treatment. Patients were divided into two groups, one group (Control, N=9) receiving standard endodontic treatment including sodium hypochlorite as the primary irrigant, with occasional (as necessary) flushes with 17% EDTA, and one group (Experimental, N=10) receiving endodontic treatment including the composition described herein as a pre-treatment applied to pulp to facilitate navigating calcified canals and after initial shaping with patency. The experimental group received sodium hypochlorite irrigation and, as necessary, EDTA flushing, as in the control group.

[2] = Experiments with TCA in endodontic treatment including sodium hypochlorite (clinical and radiographic observations); format: in vivo
Source text: FIGS. 7 and 8 show radiographic images from prior to (FIG. 7) and following (FIG. 8) endodontic treatment with a TCA composition as described herein. The image in FIG. 7 is of a tooth that had previously undergone endodontic treatment, but without TCA as a debridement solution.

[3] = cited from earlier work
[4] = endodontic treatment including sodium hypochlorite
[5] = endodontic treatment including sodium hypochlorite, particularly in lower molar cases

SMILES: OCl [Control, sodium hypochlorite, reference compound]
- amount of time that the treatment must be used (dental pulp; known debridement method): 10 min
- time to dissolve dental pulp (dental pulp; strength of 6.25%): ≥ 10 min
- self-assessed pain, 6 hours [1]: 1
- self-assessed pain, 24 hours [1]: 0.89
- self-assessed pain, 48 hours [1]: 1.44
- self-assessed pain, 120 hours [1]: 0.56
- self-assessed pain, Before [1]: 2.67

SMILES: O=C(O)C(Cl)(Cl)Cl [TCA, trichloroacetic acid]
- radiographic appearance of retreated root (FIG. 8) ([2]; after endodontic retreatment with TCA): thicker irregular deformed material that fully fills the root tip
- bleeding [2, 4]: lessened bleeding or elimination of bleeding altogether
- cleanliness of apex [2, 4]: cleaner apex
- inflammation [2, 5]: less inflammation
- pain [2, 5]: reduced pain
- access of debridement composition to microscopic root canal branches, fins, and anastomoses ([2]; in vivo): improved access
- removal of debris and material from prior endodontic treatment ([2]; in vivo): improved removal of debris
- pKa [3]: ~0.6
- subjective levels of pain following endodontic treatment compared to control ([1]; compared to the gold standard control, sodium hypochlorite): reduced subjective levels of pain
- self-reported pain level at 6 hours ([1]; patients presenting with necrosis, 6 hours following treatment): 0.5
- self-reported pain level at 24 hours ([1]; patients presenting with necrosis, 24 hours following treatment): 0.25
- self-reported pain level at 48 hours ([1]; patients presenting with necrosis, 48 hours following treatment): 0
- self-reported pain level at 120 hours ([1]; patients presenting with necrosis, 120 hours following treatment): 0
- self-reported pain level before treatment ([1]; patients presenting with necrosis, before treatment (baseline)): 4.5
- self-assessed pain, 6 hours [1]: 0.7
- self-assessed pain, 24 hours [1]: 0.5
- self-assessed pain, 48 hours [1]: 0.4
- self-assessed pain, 120 hours [1]: 0.2
- self-assessed pain, Before [1]: 3.1
